From patent US12071411B2, “Inhibitors of HIF-2α and methods of use thereof” (ARCUS BIOSCIENCES, INC., priority 2021, dated 2024)
pIC50: −log10 of the molar value.

How the values were obtained:
[1] = target: T1, HIF-2α (Homo sapiens, UniProt Q99814); assay: HIF-2α Luciferase Reporter Assay (serum free) in HIF-Luc-786-0 cells; format: cell-based; details: Opti-MEM, 786-0 reporter cells, 20 hours incubation
Protocol: (§1) Generation of HIF-2α Luciferase 786-0 Cell Line:
(§2) Stable cell lines were generated by transducing 786-0 cells (ATCC, CRL-1932) with Cignal Lenti HIF Luc Reporter lentivirus (CLS-007L, Qiagen) according to the manufacturer's guidelines. In brief, 0.3×10^6 786-0 cells were transduced with lentivirus at a multiplicity of infection (MOI) of 25 for 24 hours. After transduction, cells were replenished with fresh RPMI 1640 Medium (Cat. No. 11875085, Thermo Fisher) supplemented with 10% FBS (Cat. No. A3160502, Gibco), 2 mM GlutaMAX™ (Cat. No. 35050-061, Invitrogen) and 100 units of penicillin and 100 μg of streptomycin/mL (Cat. No 15070063, Thermo Fisher) for another 24 hours. Antibiotic selection was performed in cell media containing 4 μg/mL of puromycin. After 7 days of antibiotic selection, stable pools of surviving cells were expanded and used in a luciferase reporter assay.
HIF-2α Luciferase Reporter Assay (Serum Free):
On day one, 20 uL of HIF-Luc-786-0 cells in Opti-MEM™ (Cat. No. 31985088, Thermo Fisher) were seeded into each well of a 384 well white opaque plate (Corning 3570) and incubated at 37° C. and 5% CO2. Twenty microliters of 2× test compounds in Opti-MEM™ were added to cells after 4 hours of incubation. Final assay conditions comprised 20,000 cells per well in 1% DMSO with test compound concentrations ranging from 50 uM to 0 uM. After 20 hours incubation at 37° C. and 5% CO2, luciferase activity was determined using ONE-Glo™ Luciferase Assay Reagent (E6110, Promega) following the manufacture's recommended procedure. Briefly, 40 uL of ONE-Glo™ luciferase reagents were added to each well and luciferase signals were measured using an Envision 2102 Multilabel Reader. Percentage maximum activity in each test well was calculated based on DMSO (maximum activity) and no cell control wells (baseline activity). The IC50 values of the test compounds were determined from compound dose response curves fitted using a standard four parameter fit equation.

[2] = target: T1, HIF-2α; assay: HIF-2α Luciferase Reporter Assay (serum), HRE-luciferase 786-0 cells in 100% human serum; format: cell-based; details: for pIC50: 100% human serum, 786-0 reporter cells, overnight incubation, read-out: Serum Potency; for Serum Shift (approximate): ratio of IC50 in 100% serum to IC50 in serum free conditions
Protocol: as §1, §2
HIF-2α Luciferase Reporter Assay (Serum):
An HRE-luciferase stable reporter 786-0 cell line was maintained in active culture using RPMI 1640 (GIBCO) media supplemented with 1% penicillin-streptomycin, 1% GlutaMAX™, 10% FBS-One Shot (GIBCO) and 4 ug/ml of puromycin (Invitrogen). On the day of the assay, cells were harvested using StemPro™ Accutase™ cell dissociation reagent (GIBCO) and resuspended at 1.5 million cells per milliliter in Opti-MEM™ (GIBCO). 20 ul/well of the resuspended cells were dispensed into a 384 white tissue culture-treated microplate (Corning) and allowed to incubate at 37° C., 5% CO2 for 3 hours. Compounds were prepared by dispensing 0.8 ul of compound in 100% DMSO into a Greiner plate containing 40 ul/well of 100% human serum (Bioreclamation IVT). After 3 hours, media was removed via centrifugation at 500 RPM for 30 seconds and 30 ul/well of compound diluted in human serum was added. The plate was incubated overnight at 37° C., 5% CO2. The following day, ONE-Glo™ was prepared per vendors instructions. The cell plate was removed from the incubator and the human serum was removed from the plate using centrifugation at 500 RPM for 30 seconds. Following the removal of human serum, 40 ul/well of room temperature Opti-MEM™ was added to the plate and allowed to equilibrate to room temperature for 2 hours. 40 ul/well of ONE-Glo™ reagent was added and allowed to incubate for 10 minutes before reading the luminescence signal on the Envision (PerkinElmer). Data was analyzed using 4-parameter logistic equation to generate IC50.

T1 sequence (Q99814 whole entry): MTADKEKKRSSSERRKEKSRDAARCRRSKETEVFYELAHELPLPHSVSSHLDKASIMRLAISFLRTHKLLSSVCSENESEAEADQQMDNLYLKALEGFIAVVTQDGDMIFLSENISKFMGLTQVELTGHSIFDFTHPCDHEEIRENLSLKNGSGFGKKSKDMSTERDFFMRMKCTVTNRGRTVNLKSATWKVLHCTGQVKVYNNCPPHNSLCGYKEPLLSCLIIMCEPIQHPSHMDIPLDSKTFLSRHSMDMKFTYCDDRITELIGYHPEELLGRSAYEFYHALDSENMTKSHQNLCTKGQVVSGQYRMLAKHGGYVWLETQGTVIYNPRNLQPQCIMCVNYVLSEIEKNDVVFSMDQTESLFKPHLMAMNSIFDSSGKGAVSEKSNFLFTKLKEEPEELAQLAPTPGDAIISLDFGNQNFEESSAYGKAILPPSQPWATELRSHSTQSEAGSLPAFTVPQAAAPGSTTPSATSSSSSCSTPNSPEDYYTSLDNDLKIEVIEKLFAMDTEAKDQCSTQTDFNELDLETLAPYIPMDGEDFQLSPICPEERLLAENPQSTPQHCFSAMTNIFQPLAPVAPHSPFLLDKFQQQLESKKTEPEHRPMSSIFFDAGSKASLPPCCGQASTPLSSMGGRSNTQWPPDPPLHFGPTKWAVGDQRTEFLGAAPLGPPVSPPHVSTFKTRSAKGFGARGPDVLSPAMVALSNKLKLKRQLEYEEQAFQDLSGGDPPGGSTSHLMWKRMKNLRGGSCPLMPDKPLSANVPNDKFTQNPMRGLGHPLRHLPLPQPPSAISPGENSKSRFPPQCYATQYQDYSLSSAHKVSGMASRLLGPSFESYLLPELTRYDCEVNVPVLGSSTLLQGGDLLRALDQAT

What does the source list for `O[C@H]1c2c(C(F)(F)F)nn(C3CCC(F)(F)CC3)c2[C@@H](F)[C@H]1F` [Example 132, (4S,5S,6R)-1-(4,4-difluorocyclohexyl)-5,6-difluoro-3-(trifluoromethyl)-5,6-dihydro-4H-cyclopenta[c]pyrazol-4-ol]?
pIC50 [1]: > 7.00; pIC50 [2]: < 6.00; Serum Shift (approximate) [2]: 8

`O[C@H]1c2c(C(F)(F)F)nn(-c3ccc(Cl)c(F)c3)c2CC1(F)F` [Example 119, (4S)-1-(4-chloro-3-fluorophenyl)-5,5-difluoro-3-(trifluoromethyl)-4,6-dihydrocyclopenta[c]pyrazol-4-ol] was tested. Which pIC50 [1] did it give?
The pIC50 was > 7.00.

What about the pIC50 [2] of the same compound?
Its pIC50 is < 6.00.

And the “Serum Shift (approximate)” value [2]?
Its value is 73.

`CO[C@H](CCn1nc(C(F)(F)F)c2c1[C@@H](F)[C@@H](F)[C@H]2O)C(F)(F)F` [Example 131, (4S,5S,6R)-5,6-difluoro-1-[(3R)-4,4,4-trifluoro-3-methoxybutyl]-3-(trifluoromethyl)-5,6-dihydro-4H-cyclopenta[c]pyrazol-4-ol] was tested. Which pIC50 [1] did it give?
The pIC50 was > 7.00.

What about the pIC50 [2] of the same compound?
Its pIC50 is > 7.00.

And the “Serum Shift (approximate)” value [2]?
The value was 2.

`COC(C)CCn1nc(C(F)(F)F)c2c1CCC(F)(F)[C@H]2O` (stereo partly drawn) [Example 13, (4S)-5,5-difluoro-1-(3-methoxybutyl)-3-(trifluoromethyl)-6,7-dihydro-4H-indazol-4-ol] was tested. Which pIC50 [1] did it give?
Its pIC50 is 6.00 to 7.00.

And the pIC50 [2]?
Its pIC50 is 6.00 to 7.00.

And the “Serum Shift (approximate)” value [2]?
Its value is 2.

How did the pIC50 [1] turn out when `O[C@H]1c2c(C(F)(F)F)nn([C@H]3CCC(F)(F)[C@H](F)C3)c2CC1(F)F` [Example 122, (4S)-5,5-difluoro-1-[(1S,3R)-3,4,4-trifluorocyclohexyl]-3-(trifluoromethyl)-4,6-dihydrocyclopenta[c]pyrazol-4-ol] was run?
Its pIC50 is > 7.00.

What about the pIC50 [2] of the same compound?
The pIC50 was < 6.00.

What about the “Serum Shift (approximate)” value [2] of the same compound?
The value was 6.

What does the source list for `O[C@H]1c2c(C(F)(F)F)nn(CC3CC3C(F)(F)F)c2CCC1(F)F` (stereo partly drawn) [Example 59, (4S)-5,5-difluoro-3-(trifluoromethyl)-1-[[2-(trifluoromethyl)cyclopropyl]methyl]-6,7-dihydro-4H-indazol-4-ol]?
pIC50 [1]: 6.00 to 7.00; pIC50 [2]: < 6.00; Serum Shift (approximate) [2]: 7

Which results are given for `O[C@H]1c2c(C(F)(F)F)nn(C3CCC[C@H](OC(F)F)C3)c2CC1(F)F` (mixture of isomers) [Example 108, (4S)-1-[(1S,3S)-3-(difluoromethoxy)cyclohexyl]-5,5-difluoro-3-(trifluoromethyl)-1H,4H,5H,6H-cyclopenta[c]pyrazol-4-ol and (4S)-1-[(1R,3R)-3-(difluoromethoxy)cyclohexyl]-5,5-difluoro-3-(trifluoromethyl)-1H,4H,5H,6H-cyclopenta[c]pyrazol-4-ol]?
pIC50 [1]: > 7.00; pIC50 [2]: < 6.00; Serum Shift (approximate) [2]: 19

With `O[C@H]1c2c(C(F)(F)F)nn(C[C@@H](F)C3CC3)c2CCC1(F)F` (single isomer, unassigned) [26/27 DIAST-1] as the compound, how does the pIC50 [1] read?
Its pIC50 is < 6.00.

`F[C@H]1c2c(C(F)(F)F)nn(CCCC(F)(F)F)c2CCC1(F)F` [Example 48, (4S)-4,5,5-trifluoro-1-(4,4,4-trifluorobutyl)-3-(trifluoromethyl)-6,7-dihydro-4H-indazole] was tested. Which pIC50 [1] did it give?
Its pIC50 is < 6.00.

How did the pIC50 [1] turn out when `O[C@H]1c2c(C(F)(F)F)nn(-c3ccc(C(F)(F)F)nc3)c2CC1(F)F` [Example 68, (4S)-5,5-difluoro-3-(trifluoromethyl)-1-[6-(trifluoromethyl)pyridin-3-yl]-4,6-dihydrocyclopenta[c]pyrazol-4-ol] was run?
The pIC50 was > 7.00.

With `CO[C@H]1CCCC[C@H]1n1nc(C(F)(F)F)c2c1CC(F)(F)[C@H]2O` (racemic) [Example 69, (4S)-5,5-difluoro-1-[(1R,2S)-2-methoxycyclohexyl]-3-(trifluoromethyl)-4,6-dihydrocyclopenta[c]pyrazol-4-ol and (4S)-5,5-difluoro-1-[(1S,2R)-2-methoxycyclohexyl]-3-(trifluoromethyl)-4,6-dihydrocyclopenta[c]pyrazol-4-ol] as the compound, how does the pIC50 [1] read?
Its pIC50 is < 6.00.

With `COCC(C)CCn1nc(C(F)(F)F)c2c1CCC(F)(F)[C@H]2O` (stereo partly drawn) [Example 6, (4S)-5,5-difluoro-1-(4-methoxy-3-methylbutyl)-3-(trifluoromethyl)-6,7-dihydro-4H-indazol-4-ol] as the compound, how does the pIC50 [1] read?
The pIC50 was < 6.00.

`CO[C@H](CCn1nc(S(C)(=O)=O)c2c1CC(F)(F)[C@H]2O)C(F)(F)F` (racemic) [Example 107, (4S)-5,5-difluoro-3-methylsulfonyl-1-[(3R)-4,4,4-trifluoro-3-methoxybutyl]-4,6-dihydrocyclopenta[c]pyrazol-4-ol and (4S)-5,5-difluoro-3-methylsulfonyl-1-[(3S)-4,4,4-trifluoro-3-methoxybutyl]-4,6-dihydrocyclopenta[c]pyrazol-4-ol] was tested. Which pIC50 [1] did it give?
Its pIC50 is > 7.00.

How did the pIC50 [1] turn out when `O[C@H]1c2c(C(F)(F)F)nn([C@@H]3CCO[C@H](C(F)(F)F)C3)c2[C@@H](F)[C@H]1F` (single isomer, unassigned) [150/151 DIAST-2] was run?
Its pIC50 is < 6.00.

With `O[C@H]1c2c(C(F)(F)F)nn([C@H]3C[C@@H](COC(F)F)C3)c2CCC1(F)F` [Example 105, (4S)-1-[3-(difluoromethoxymethyl)cyclobutyl]-5,5-difluoro-3-(trifluoromethyl)-6,7-dihydro-4H-indazol-4-ol] as the compound, how does the pIC50 [1] read?
Its pIC50 is < 6.00.

With `O[C@H]1c2c(C(F)(F)F)nn(CCC3CCCO3)c2CCC1(F)F` (stereo partly drawn) [Example 34, (4S)-5,5-difluoro-1-[2-(oxolan-2-yl)ethyl]-3-(trifluoromethyl)-6,7-dihydro-4H-indazol-4-ol] as the compound, how does the pIC50 [1] read?
The pIC50 was < 6.00.

With `CCC(F)(F)Cn1nc(C(F)(F)F)c2c1CCC(F)(F)[C@H]2O` [Example 29, (4S)-1-(2,2-difluorobutyl)-5,5-difluoro-3-(trifluoromethyl)-6,7-dihydro-4H-indazol-4-ol] as the compound, how does the pIC50 [1] read?
The pIC50 was < 6.00.

`O[C@H]1c2c(C(F)(F)F)nn([C@H]3CC[C@H](F)C[C@@H]3F)c2CC1(F)F` (single isomer, unassigned) [97/98 DIAST-2] was tested. Which pIC50 [1] did it give?
The pIC50 was > 7.00.

How did the pIC50 [1] turn out when `C[C@]1(OC(F)F)C[C@@H](Cn2nc(C(F)(F)F)c3c2CCC(F)(F)[C@H]3O)C1` [Example 19, (4S)-1-[[3-(difluoromethoxy)-3-methylcyclobutyl]methyl]-5,5-difluoro-3-(trifluoromethyl)-6,7-dihydro-4H-indazol-4-ol] was run?
Its pIC50 is < 6.00.

`O[C@H]1c2c(C(F)(F)F)nn(C3CCCCC3)c2CCC1(F)F` [Example 35, (4S)-1-cyclohexyl-5,5-difluoro-3-(trifluoromethyl)-6,7-dihydro-4H-indazol-4-ol] was tested. Which pIC50 [1] did it give?
The pIC50 was < 6.00.

With `O[C@H]1c2c(C(F)(F)F)nn([C@@H]3CCO[C@@H](C(F)(F)F)C3)c2CC1(F)F` (single isomer, unassigned) [92/93 DIAST-1] as the compound, how does the pIC50 [1] read?
The pIC50 was > 7.00.

With `O[C@H]1c2c(C(F)(F)F)nn(CC(F)(F)C3CC3)c2CCC1(F)F` [Example 28, (4S)-1-(2-cyclopropyl-2,2-difluoroethyl)-5,5-difluoro-3-(trifluoromethyl)-4,5,6,7-tetrahydro-1H-indazol-4-ol] as the compound, how does the pIC50 [1] read?
Its pIC50 is < 6.00.

`O[C@H]1c2c(C(F)(F)F)nn(Cc3cc(C(F)(F)F)no3)c2CCC1(F)F` [Example 4, (4S)-5,5-difluoro-3-(trifluoromethyl)-1-[[3-(trifluoromethyl)-1,2-oxazol-5-yl]methyl]-6,7-dihydro-4H-indazol-4-ol] was tested. Which pIC50 [1] did it give?
Its pIC50 is < 6.00.

`O[C@H]1c2c(C(F)(F)F)nn([C@H]3CC[C@H](F)[C@H](F)C3)c2[C@H](F)C1(F)F` (single isomer, unassigned) [Example 155] was tested. Which pIC50 [1] did it give?
Its pIC50 is < 6.00.
